# Reference: PubChem BioAssay (NCI)
# Values joined by “and” are separate entries in the source; they are usually repeats but may differ in a detail not shown here. Equal values may be shown once.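 Results reflect a 48-hour exposure of cells in 96-well plates to compound at five concentrations. GI50: concentration for 50% inhibition of growth. TGI denotes the concentration required for complete inhibition of growth.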
# Assays:
# Assay in all cases: NCI anticancer screen, dose series, 48 h
# OVCAR-4 ovarian = tested on: OVCAR-4 ovarian
# SNB-75 CNS = tested on: SNB-75 CNS
# HS 578T breast = tested on: HS 578T breast
# SNB-19 CNS = tested on: SNB-19 CNS
# SF-268 CNS = tested on: SF-268 CNS
# LOX IMVI melanoma = tested on: LOX IMVI melanoma
# NCI-H23 lung = tested on: NCI-H23 lung
# MDA-MB-231 breast = tested on: MDA-MB-231 breast
# KM12 colon = tested on: KM12 colon
# SK-OV-3 ovarian = tested on: SK-OV-3 ovarian
SMILES,GI50 (OVCAR-4 ovarian),TGI (OVCAR-4 ovarian),GI50 (SNB-75 CNS),TGI (SNB-75 CNS),GI50 (HS 578T breast),TGI (HS 578T breast),GI50 (SNB-19 CNS),TGI (SNB-19 CNS),GI50 (SF-268 CNS),TGI (SF-268 CNS),GI50 (LOX IMVI melanoma),TGI (LOX IMVI melanoma),GI50 (NCI-H23 lung),TGI (NCI-H23 lung),GI50 (MDA-MB-231 breast),TGI (MDA-MB-231 breast),GI50 (KM12 colon),TGI (KM12 colon),GI50 (SK-OV-3 ovarian),TGI (SK-OV-3 ovarian)
O=C(c1nc2ccccc2[nH]1)C1C(c2cccc([N+](=O)[O-])c2)C2CC3CCCCC3N2[C@@]12C(=O)Nc1cc(Cl)ccc12 (some centres undefined),2.08 µM,8.87 µM,1.18 µM,3.63 µM,1.63 µM,4.41 µM,2.04 µM,6.43 µM,2.11 µM,5.43 µM,1.55 µM,2.96 µM,2.37 µM,5.89 µM,1.49 µM,3.17 µM,1.63 µM,3.5 µM,–,–
Cc1c(-c2ccnc(N)n2)c2c(n1-c1ccccc1)C(=O)c1ccccc1C2=O,58.3 µM,> 100 µM,30 µM,> 100 µM,22.4 µM,60.8 µM,70 µM,> 100 µM,–,–,10.6 µM,24.2 µM,–,–,19.7 µM,63.3 µM,16.8 µM,45.8 µM,39.3 µM,> 100 µM
CCCCOc1nc2ccccc2cc1C1CNC(=O)c2ccccc2N1 (centres undefined),4.77 µM,24.8 µM,1.75 µM,12.2 µM,2.63 µM,19 µM,5.55 µM,44.8 µM,4.24 µM,> 48.5 µM,3.24 µM,15.4 µM,5.19 µM,35.1 µM,4.78 µM,26 µM,3.31 µM,72.5 µM,2.94 µM,13.3 µM
CC(=O)O[C@H]1Cc2c([nH]c3ccccc23)[C@@H](c2ccc(Cl)cc2)N1C(=O)CCNC(C)(C)C,3.06 µM,7.14 µM,1.64 µM,7.52 µM,3.76 µM,13 µM,4.64 µM,9.06 µM,4.21 µM,9.24 µM,2.43 µM,6.72 µM,5.12 µM,10.5 µM,1.79 µM,6.07 µM,4.33 µM,9.51 µM,4.53 µM,8.97 µM
CCCCCCCC(=O)O[C@H]1[C@H]2[C@@H](CC1(C)C)C(=O)[C@]13O[C@H]1C(=O)[C@]1(CO1)[C@]23C,2.83 µM,9.2 µM and 9.85 µM,14.2 µM,29.4 µM and 53.6 µM,–,> 100 µM,–,44.9 µM and 45.9 µM,8.17 µM,23.1 µM and 16.2 µM,2.16 µM,5.63 µM and 5.48 µM,12.5 µM,28.4 µM and 8.51 µM,–,44.5 µM,19 µM,40.3 µM and 21.5 µM,20.7 µM,44.6 µM and 61.9 µM
Nc1ccc(Sc2ccc3c4c2cccc4c(=O)n2c4ccccc4nc32)cc1,6.93 µM,28.8 µM,3.35 µM,48.1 µM,10.1 µM,> 100 µM,6.17 µM,> 100 µM,5.42 µM,80.2 µM,3.32 µM,14.3 µM,5.03 µM,> 100 µM,5.31 µM,30 µM,6.63 µM,58.6 µM,5.63 µM,37.2 µM
S=C1NC2=C(CCOc3c2ccc2ccccc32)C(c2ccc(Cl)cc2)N1 (centres undefined),> 100 µM,> 100 µM,84 µM,> 100 µM,21.5 µM,73.5 µM,56.4 µM,> 100 µM,39.2 µM,> 100 µM,40.2 µM,> 100 µM,18.2 µM,92 µM,10.6 µM,67.6 µM,47.5 µM,> 100 µM,> 100 µM,> 100 µM
Clc1ccc2c(NCCNc3nc(Cl)nc4ccccc34)ccnc2c1,0.323 µM,1.22 µM,1.64 µM,3.16 µM,2.26 µM,4.96 µM,–,–,1.89 µM,3.84 µM,–,–,1.83 µM,3.7 µM,0.36 µM,1.21 µM,1.61 µM,3.17 µM,1.82 µM,3.35 µM
COc1ccc(C(=O)C(CN(C)C)c2ccccc2)cc1 (centres undefined),5.34 µM,> 100 µM,12.8 µM,27.3 µM,1.95 µM,6.17 µM,11.1 µM,23.1 µM,2.17 µM,4.86 µM,1.73 µM,3.8 µM,1.56 µM,3.32 µM,5.41 µM,17.4 µM,3.98 µM,13.6 µM,27.7 µM,77.2 µM
N#CSc1cc(-c2nc3ccccc3o2)ccc1N,30.5 µM,> 100 µM,1.83 µM,> 20.7 µM,11.3 µM,63.6 µM,59.7 µM,> 100 µM,22.6 µM,83.4 µM,13.5 µM,43.9 µM,19.5 µM,> 86.1 µM,> 100 µM,> 100 µM,6.54 µM,27.1 µM,76.5 µM,> 100 µM
COc1cc2cc(C(=O)N3C[C@H](CCl)c4c3cc(O)c3ccccc43)[nH]c2c(OC)c1OC,0.0612 µM,2.76 µM and 14.6 µM,–,0.449 µM,–,0.652 µM,0.0391 µM,1.42 µM and 1.67 µM,0.0169 µM,0.563 µM and 4.99 µM,0.0201 µM,1.83 µM and 12.3 µM,< 0.01 µM,0.234 µM and 0.0927 µM,–,3.94 µM,0.0425 µM,0.677 µM and 1.37 µM,–,–
CCN(CC)c1ccc(/C=C2/NC(=O)NC2=O)cc1,22.6 µM,> 100 µM,4.01 µM,> 100 µM,1.23 µM,> 28 µM,15.5 µM,> 100 µM,4.39 µM,> 35.8 µM,9.73 µM,> 100 µM,7.97 µM,> 100 µM,28.7 µM,> 100 µM,1.65 µM,> 24.2 µM,6.84 µM,> 100 µM
Cn1cc(C2=C(c3cn(C)c4cc(Cl)ccc34)C(=O)NC2=O)c2ccccc21,0.362 µM,> 25 µM,0.0893 µM,> 25 µM,0.0731 µM,1.93 µM,0.145 µM,> 25 µM,0.18 µM,> 15.1 µM,0.198 µM,> 25 µM,0.106 µM,9.1 µM,0.125 µM,> 5.58 µM,0.106 µM,4.35 µM,0.101 µM,> 25 µM
c1ccc(-c2nn(-c3ccccc3)[n+](-c3ccccc3-c3ccccc3)n2)cc1,0.382 µM,24.5 µM,1.23 µM,19.9 µM,1.88 µM,31.5 µM,1.24 µM,> 80.7 µM,1.71 µM,> 47.7 µM,1.02 µM,18.8 µM,0.683 µM,8.63 µM,0.235 µM,9.21 µM,0.532 µM,11 µM,1.29 µM,> 29.1 µM
CCn1c(-c2nonc2N)nc2c(C#CC(C)(C)O)ncc(OCC3CCNCC3)c21,> 25 µM,> 25 µM,2.74 µM,> 23.3 µM,3.83 µM,15.4 µM,10.6 µM,> 25 µM,9.41 µM,> 25 µM,7.04 µM,> 25 µM,> 19.2 µM,> 25 µM,> 25 µM,> 25 µM,7.58 µM,> 25 µM,10.4 µM,> 25 µM
COC(=O)[C@@H](C)C[C@H](Cc1ccccc1)NC(=O)c1csc([C@@H](C[C@H](C(C)C)N(C)C(=O)[C@@H](NC(=O)CN(C)C)C2CC2)OC(C)=O)n1,1.16 µM,> 16.5 µM,0.00696 µM,> 16.5 µM,0.0263 µM,> 16.5 µM,0.0862 µM,> 16.5 µM,0.0373 µM,> 16.5 µM,0.0301 µM,> 16.5 µM,0.0635 µM,> 16.5 µM,0.0858 µM,> 16.5 µM,0.0215 µM,> 10.5 µM,0.434 µM,> 16.5 µM
O=C(O)c1ccccc1/C=C1/Nc2ccccc2C1=O,–,> 100 µM,–,> 100 µM,–,> 100 µM,–,> 100 µM,–,> 100 µM,–,> 100 µM,–,> 100 µM,–,> 100 µM,–,> 100 µM,–,> 100 µM
O=C(CN1CCN(c2cc3c(cc2F)c(=O)c(C(=O)O)cn3C2CC2)CC1)Nc1ccc(C(=O)/C=C/c2ccccc2)cc1,9.47 µM,> 100 µM,3.22 µM,> 100 µM,4.99 µM,> 100 µM,3.05 µM,> 100 µM,4.13 µM,> 100 µM,2.32 µM,> 100 µM,2.48 µM,14.3 µM,1.84 µM,5.13 µM,4.11 µM,> 100 µM,27.3 µM,> 100 µM
CCOC(=O)Nc1ccc2nc(Sc3ccc(Cl)cc3)sc2c1,20.7 µM,> 100 µM,2.96 µM,33.9 µM,7.25 µM,97.9 µM,7.31 µM,> 100 µM,8.66 µM,> 100 µM,4.45 µM,25.3 µM,10.2 µM,> 100 µM,4.47 µM,34 µM,0.684 µM,> 58.8 µM,4.8 µM,> 95 µM
O=C(Nc1ccc(Oc2cccc(Cl)c2)c(Cl)c1)c1cccnc1,14.5 µM,> 50 µM,1.21 µM,4.81 µM,1.83 µM,35.5 µM,3.15 µM,> 50 µM,3.71 µM,46.6 µM,2.9 µM,13 µM,3.3 µM,> 50 µM,6.25 µM,46 µM,0.782 µM,12 µM,2.12 µM,> 50 µM
Nc1cc2ccncc2c2ccccc12,20.2 µM,> 100 µM,16.1 µM,35.2 µM,13.9 µM,40.4 µM,19.5 µM,> 100 µM,11.1 µM,52.5 µM,8.68 µM,> 100 µM,16.7 µM,80.1 µM,16.4 µM,96.1 µM,11.6 µM,> 100 µM,13.6 µM,87.4 µM
NS(=O)(=O)c1ccc(N=Nc2cc3ccccc3c(C(=O)O)c2O)cc1,–,> 80.9 µM,–,> 94.4 µM,–,> 100 µM,–,> 100 µM,–,> 85.6 µM,–,> 100 µM,–,> 100 µM,–,97 µM,–,> 100 µM,–,> 100 µM
COC(=O)CCCCCCCCC(=O)c1c(C)[nH]c(/C=C2\N=C(c3ccc[nH]3)C=C2OC)c1C,> 85.9 µM,> 100 µM,> 31 µM,> 83.7 µM,> 33 µM,> 100 µM,59.1 µM,> 100 µM,> 20.6 µM,> 100 µM,0.207 µM,0.466 µM,> 100 µM,> 100 µM,7.83 µM,> 100 µM,> 69.9 µM,> 100 µM,> 100 µM,> 100 µM
CCOC(=O)CCC(NC(=O)c1ccc(Nc2nc3cc(N)cc(N)c3nc2-c2ccccc2)cc1)C(=O)OCC (centres undefined),44.5 µM,> 100 µM,> 100 µM,> 100 µM,33.3 µM,75 µM,> 46.4 µM,> 100 µM,34.2 µM,> 100 µM,25.4 µM,> 100 µM,30.8 µM,> 74.5 µM,16.5 µM,> 53.2 µM,> 52.9 µM,> 100 µM,22 µM,47.7 µM
CN(C)CC1CCCCCCCCCCC1=O (centres undefined),> 100 µM,> 100 µM,–,> 100 µM,–,> 100 µM,> 100 µM,> 100 µM,> 100 µM,> 100 µM,–,–,> 100 µM,> 100 µM,–,> 10 µM,> 10 µM and 78.3 µM,> 100 µM,–,> 100 µM
NC(=S)c1cn(C2OC(CO)C(O)C2O)c2ncnc(N)c12 (centres undefined),0.081 µM,4.21 µM,0.223 µM,1.84 µM,0.254 µM,2.54 µM,0.411 µM,13.7 µM,0.284 µM,3.4 µM,0.139 µM,2.49 µM,0.139 µM,0.677 µM,0.152 µM,> 100 µM,0.0262 µM,0.205 µM,–,–
